Some test systems named below: HL-60(TB) leukemia; K-562 leukemia; MDA-MB-435; MDA-N; NCI-H226 lung; PC-3 prostate; RXF 393 renal; SK-OV-3 ovarian; TK-10 renal.
Holding throughout (test): NCI anticancer screen, dose series, 48 h

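Cultured in 96-well plates, cells were exposed to test compound for 48 hours across five concentrations. TGI: total growth inhibition.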 Where a SMILES comes first, the peptide text is derived from it. The star is where a group is joined. Cbz = O=C(OCc1ccccc1)*; Boc = CC(C)(C)OC(=O)*; tBu = CC(C)(C)*

For the compound `CC12CCC([C@H](C(O)C3CCCCC3)C1=O)C2(C)C` (stereo partly drawn), the TGI in the assay with HL-60(TB) leukemia was 42.4 µM; in the assay on K-562 leukemia it was greater than 100 µM; with MDA-MB-435, greater than 100 µM; in the assay with MDA-N it was greater than 100 µM; in the assay on NCI-H226 lung it was greater than 100 µM; in the assay with PC-3 prostate, greater than 100 µM. Moreover, the TGI in the assay with RXF 393 renal, in the assay with SK-OV-3 ovarian and in the assay with TK-10 renal was greater than 100 µM in each case.

`COC(=O)C1C(=O)C=CN([C@H](C)c2ccccc2)[C@@H]1Cc1ccc(OC)c(OCc2ccccc2)c1I` (stereo partly drawn): the TGI was 79 µM in the assay on HL-60(TB) leukemia; greater than 100 µM in the assay with K-562 leukemia; 47.8 µM in the assay with MDA-MB-435; 34.3 µM with MDA-N; 32.7 µM in the assay with NCI-H226 lung; greater than 100 µM in the assay on PC-3 prostate. Also, the TGI was 25.2 µM with RXF 393 renal, greater than 100 µM in the assay on SK-OV-3 ovarian and 60.4 µM in the assay on TK-10 renal.

Turning to `COc1cc(OC)c2c(=O)c(OC)c(-c3ccc4c(c3)OCO4)oc2c1`, the TGI in the assay with HL-60(TB) leukemia, in the assay with K-562 leukemia, in the assay with MDA-MB-435, in the assay with MDA-N, in the assay on NCI-H226 lung and in the assay on PC-3 prostate was greater than 100 µM throughout. Besides, the TGI was 72.6 µM with RXF 393 renal, 71.7 µM with SK-OV-3 ovarian and greater than 100 µM with TK-10 renal.

`NCCCCC(N)C(=O)NCCNc1ccc(NCCNC(=O)C(N)CCCCN)c2c1C(=O)c1ccccc1C2=O` (stereo not drawn): the TGI in the assay on HL-60(TB) leukemia, in the assay on K-562 leukemia, with MDA-MB-435, in the assay with MDA-N, with NCI-H226 lung and with PC-3 prostate was greater than 100 µM throughout. The TGI in the assay with RXF 393 renal is 21.6 µM; in the assay on SK-OV-3 ovarian, greater than 100 µM; in the assay with TK-10 renal, greater than 100 µM.

On to `O=C1N[C@@H](c2c[nH]c3cc(Br)ccc23)C(=O)N[C@H]1c1c[nH]c2cc(Br)ccc12`, for which the TGI in the assay on HL-60(TB) leukemia, with K-562 leukemia, with MDA-MB-435, in the assay with MDA-N, with NCI-H226 lung and in the assay with PC-3 prostate was greater than 100 µM throughout. Also, the TGI with RXF 393 renal, with SK-OV-3 ovarian and in the assay on TK-10 renal was greater than 100 µM in each case.

Consider `CN(C)CCCN1c2ccccc2Sc2cnccc21`, for which the TGI with HL-60(TB) leukemia, with K-562 leukemia, in the assay on MDA-MB-435, with MDA-N, in the assay on NCI-H226 lung and with PC-3 prostate was greater than 100 µM in each case. Besides, the TGI in the assay on RXF 393 renal, in the assay on SK-OV-3 ovarian and in the assay on TK-10 renal was greater than 100 µM each time.

`CC(OC(C)(C)C)C(NC(=O)C(CCCCNC(=O)OC(C)(C)C)NC(=O)C(Cc1c[nH]c2ccccc12)NC(=O)C(Cc1ccccc1)NC(=O)OCc1ccccc1)C(=O)NC(Cc1ccccc1)C(=O)O` (stereo not drawn) (Cbz-FWK(Boc)T(tBu)F-OH; configuration not given here): the TGI in the assay on HL-60(TB) leukemia, in the assay on K-562 leukemia, in the assay with MDA-MB-435, in the assay with MDA-N, in the assay on NCI-H226 lung and in the assay on PC-3 prostate was greater than 100 µM in each case. Also, the TGI in the assay on RXF 393 renal, in the assay on SK-OV-3 ovarian and in the assay on TK-10 renal was greater than 100 µM each time.

As for `O=c1oc2cc(O)ccc2c(O)c1C(c1ccccc1F)c1c(O)c2ccc(O)cc2oc1=O`, the TGI in the assay on HL-60(TB) leukemia was 43.7 µM; with K-562 leukemia, 69 µM; with MDA-MB-435 it was greater than 100 µM; in the assay with MDA-N it was greater than 100 µM; with NCI-H226 lung, greater than 100 µM; in the assay on PC-3 prostate, greater than 100 µM. Further, the TGI with RXF 393 renal, in the assay with SK-OV-3 ovarian and in the assay on TK-10 renal was greater than 100 µM in each case.

As for `COc1ccc(CCN2CCN(CCc3ccc(OC)cc3)CC2)cc1`, the TGI in the assay with HL-60(TB) leukemia, with K-562 leukemia, in the assay on MDA-MB-435, with MDA-N, with NCI-H226 lung and with PC-3 prostate was greater than 100 µM each time. For the same compound, the figures for the TGI with RXF 393 renal, in the assay with SK-OV-3 ovarian and with TK-10 renal were 95.1 µM, greater than 100 µM and greater than 100 µM, respectively.

In the case of `Cc1ccc(/C=C2\CCC/C(=C\c3ccc(O)c(CN4CCCCC4)c3)C2=O)cc1`, the TGI in the assay on HL-60(TB) leukemia was greater than 100 µM; in the assay on K-562 leukemia, greater than 38.3 µM; in the assay on MDA-MB-435, 25.5 µM; in the assay on MDA-N it was 25.2 µM; in the assay on NCI-H226 lung, 23.3 µM; in the assay with PC-3 prostate it was greater than 47.5 µM. For the same compound, the TGI in the assay with RXF 393 renal worked out at 27.1 µM; in the assay with SK-OV-3 ovarian it was 26.3 µM; with TK-10 renal it was 37.9 µM.

As to `O=C1C=CC=C/C1=C1\N=C(c2ccccc2OCC(=O)c2ccc(Br)cc2)SS1`, the TGI with HL-60(TB) leukemia, with K-562 leukemia, with MDA-MB-435, in the assay on MDA-N, with NCI-H226 lung and in the assay on PC-3 prostate was greater than 100 µM in each case. For the same compound, the TGI with RXF 393 renal, in the assay with SK-OV-3 ovarian and in the assay with TK-10 renal was greater than 100 µM throughout.

As to `CN(/N=C/c1ccc(OCc2cccc(COc3ccc(C=O)cc3)n2)cc1)c1cnn(-c2ccc(Cl)cc2Cl)c(=O)c1Cl`, the TGI in the assay with HL-60(TB) leukemia, in the assay on K-562 leukemia, in the assay with MDA-MB-435, with MDA-N, in the assay on NCI-H226 lung and with PC-3 prostate was greater than 100 µM throughout. Moreover, the TGI was 73.2 µM with RXF 393 renal and greater than 100 µM in the assay on TK-10 renal.

`CC1=CC(=O)N(n2c(Cc3ccccc3)n[nH]c2=O)C1=O`: the TGI in the assay with K-562 leukemia, in the assay with MDA-MB-435, in the assay on MDA-N, with NCI-H226 lung, in the assay with PC-3 prostate and in the assay with RXF 393 renal was greater than 100 µM in each case. Further, the TGI with SK-OV-3 ovarian and with TK-10 renal was greater than 100 µM throughout.

Consider `CNc1nc2n(CCO)c(-c3ccccc3)c(-c3ccccc3)nc-2c(=O)n1`, for which the TGI in the assay with K-562 leukemia, in the assay with MDA-MB-435, with MDA-N, in the assay on NCI-H226 lung, in the assay on PC-3 prostate and with RXF 393 renal was greater than 50 µM each time. Also, the TGI in the assay with SK-OV-3 ovarian and with TK-10 renal was greater than 50 µM each time.
